Data set [1] has as its target T1, σ1 receptor (Cavia porcellus, UniProt Q60492).
Description: (§1) In vitro binding studies were conducted in order to determine the affinity of the target compounds at σ1 and σ2 receptors.
(§2) In this example, test compounds were dissolved in N,N-dimethylformamide (DMF), dimethylsulfoxide (DMSO) or ethanol and then diluted in 50 mM Tris-HCl, pH 7.4 buffer containing 150 mM NaCl and 100 mM EDTA. Membrane homogenates were made from guinea pig brain for σ1 binding assays and rat liver for σ2 binding assays. Membrane homogenates were diluted with 50 mM Tris-HCl buffer, pH 8.0, and incubated at 25° C. in a total volume of 150 μL in 96-well plates with the radioligand and test compounds with concentrations ranging from 0.1 nM to 10 μM. After incubation was completed, the reactions were terminated by the addition of 150 μL of ice-cold wash buffer (10 mM Tris-HCl, 150 mM NaCl, pH 7.4) using a 96-channel transfer pipette (Fisher Scientific, Pittsburgh, Pa.), and the samples harvested and filtered rapidly through 96-well fiberglass filter plate (Millipore, Billerica, Mass.) that had been presoaked with 100 μL of 50 mM Tris-HCl buffer, pH 8.0, for 1 h. Each filter was washed three times with 200 μL of ice cold wash buffer.
(§3) Ki values were calculated using the method of Cheng and Prusoff20 and represent mean values±SEM.
The target of another data set is T2, σ2 receptor (Rattus norvegicus, UniProt Q5U3Y7).
T2 construct: from tissue; host or cells: rat liver membrane homogenates
T2 sequence (Q5U3Y7 1-176): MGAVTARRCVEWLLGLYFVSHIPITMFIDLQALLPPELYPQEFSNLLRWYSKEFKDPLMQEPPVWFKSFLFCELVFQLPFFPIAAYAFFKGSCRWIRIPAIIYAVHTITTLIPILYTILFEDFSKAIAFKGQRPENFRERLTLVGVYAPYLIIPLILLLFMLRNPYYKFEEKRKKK
Description: σ2 receptor binding assay, [3H]DTG or [3H]RHM-1. As to conditions: for σ1/σ2 Ratio: Ki for σ1/Ki for σ2.

The target in data set [2] is T1, σ1 receptor. Description: biochemical.
Description: as §1, §2, §3
The next data set relates to EMT-6 cells. To be noted: EMT-6, 1 h pre-incubation with inhibitor (100 μM), MTS assay.
[3] abbreviates: inhibiting binding of [3H]DTG or [3H]RHM-1 to rat liver homogenates, mean ± SEM, read-out: Ki σ2.
Where [4] appears, read: Ki σ2, inhibiting binding of [3H]DTG or [3H]RHM-1 to rat liver homogenates, mean ± SEM.

Entries after “also recorded” stand apart in the source; their conditions may differ. Structures can show the parent of a compound that is named as a salt. Where two headings read alike, the source gives them in different places.

T1 sequence (Q60492 whole entry): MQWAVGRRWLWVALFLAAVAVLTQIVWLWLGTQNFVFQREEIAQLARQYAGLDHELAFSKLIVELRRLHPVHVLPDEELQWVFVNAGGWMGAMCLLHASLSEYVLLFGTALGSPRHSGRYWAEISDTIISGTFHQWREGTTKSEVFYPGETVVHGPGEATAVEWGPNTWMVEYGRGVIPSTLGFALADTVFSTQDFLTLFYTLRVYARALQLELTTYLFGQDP
Description for EMT-6 cells: To determine the effect of blocking the caspase-dependent apoptotic pathway on sigma ligand-induced cell killing, the caspase inhibitors, Z-VAD-FMK or Z-DEVD-FMK (Calbiochem, San Diego, Calif.) were added to the culture medium 1 hour before the sigma ligands, and the MTS assay performed as described above.
Description for σ2 receptor: as §1, §2, §3

A word on the Ki: it is a measure of affinity in units of concentration, obtained from inhibition or displacement. On to “N-(9-(4-(40-Iodobenzoylamino)hexyl)-9-azabicyclo[3.3.1]nonan-3α-yl)-N-(2-methoxy-5-methylphenyl)carbamate oxalate [Compound 4d]”, for which the Ki on σ1 receptor [1] stood at 1410 ± 318 nM; at σ2 receptor (setting [3]) it was 1010 nM. In addition, the “σ1/σ2 Ratio” value on σ2 receptor turned out to be 1.40.

For the molecule `COc1ccc(C)cc1NC(=O)O[C@H]1C[C@H]2CCC[C@@H](C1)N2CCCCNCc1cccc(I)c1` [Compound 2c, N-(9-(4-(3′-Iodobenzylamino)butyl)-9-azabicyclo-[3.3.1]nonan-3α-yl)-N-(2-methoxy-5-methylphenyl)carbamate oxalate], the Ki at σ1 receptor [2] amounted to 63.9 ± 5.61 nM; at σ2 receptor (setting [4]), 1.21 ± 0.14 nM. For the same molecule, the “σ1/σ2 Ratio” value on σ2 receptor stood at 52.77.

For `COc1ccc(C)cc1NC(=O)OC1CC2CCCC(C1)N2CCCCCCCCCCN` (stereo not drawn) [Compound 1c, N-(9-(10-Aminodecyl)-9-azabicyclo[3.3.1]nonan-3α-yl)-N-(2-methoxy-5-methylphenyl)carbamate hydrochloride], the Ki at σ1 receptor [1] was found to be 134 ± 11.9 nM; at σ2 receptor (setting [3]) it was 7.07 ± 1.27 nM. The “affinity and selectivity for σ2 versus σ1 receptors (in words)” value (“affinity and selectivity” below) on σ2 receptor is reported as “high affinity at σ2 receptor but low selectivity”. Besides, at σ2 receptor, the “σ1/σ2 Ratio” value stood at 19.

As to `COc1ccc(C)cc1NC(=O)OC1CC2CCCC(C1)N2CCCCCCNCc1ccc(Br)cc1` (stereo not drawn) [Compound 3d, N-(9-(6-(4′-Bromobenzylamino)hexyl)-9-azabicyclo[3.3.1]nonan-3α-yl)-N-(2-methoxy-5-methylphenyl)carbamate oxalate], the Ki at σ1 receptor [2] was 43.2 ± 2.88 nM; on σ2 receptor (setting [4]), 9.93 ± 1.61 nM. The “σ1/σ2 Ratio” value at σ2 receptor was determined as 4.35.

As to `COc1ccc(C)cc1NC(=O)OC1CC2CCCC(C1)N2CCCCCCNCc1ccc(F)cc1` (stereo not drawn) [Compound 3e, N-(9-(6-(4′-Fluorobenzylamino)hexyl)-9-azabicyclo[3.3.1]nonan-3α-yl)-N-(2-methoxy-5-methylphenyl)carbamate oxalate], the Ki at σ1 receptor [2] was found to be 1 ± 0.26 nM; at σ2 receptor (setting [4]), 70.9 ± 4.38 nM. The “σ1/σ2 Ratio” value on σ2 receptor is 0.01.

Regarding “N-(9-(4-(4′-Fluorobenzoylamino)hexyl)-9-azabicyclo[3.3.1]nonan-3α-yl)-N-(2-methoxy-5-methylphenyl)carbamate oxalate [Compound 4c]”, the Ki at σ1 receptor [1] worked out at 1240 ± 212 nM; on σ2 receptor (setting [3]), 497 ± 103 nM. Besides, the “σ1/σ2 Ratio” value at σ2 receptor was 2.50.

`COc1ccc(C)cc1NC(=O)OC1CC2CCCC(C1)N2CCCCN` (stereo not drawn) [Compound 1a, N-(9-(4-Aminobutyl)-9-azabicyclo[3.3.1]nonan-3α-yl)-N-(2-methoxy-5-methyl-phenyl)carbamate hydrochloride] yielded a Ki at σ1 receptor [2] of 2490 ± 271 nM. In addition, at σ2 receptor, the “affinity and selectivity” value is “moderate affinity and selectivity”; the “σ1/σ2 Ratio” value was 193. Moreover, at σ2 receptor (setting [4]), the Ki was 12.9 ± 0.46 nM.

Consider `COc1ccc(C)cc1NC(=O)O[C@H]1C[C@H]2CCC[C@@H](C1)N2CCCCCCN.Cl` [Compound 1b, N-(9-(6-Aminohexyl)-9-azabicyclo[3.3.1]nonan-3α-yl)-N-(2-methoxy-5-methyl-phenyl)carbamate hydrochloride], for which the Ki at σ1 receptor [1] turned out to be 1420 ± 439 nM; at σ2 receptor (setting [3]), 5.19 ± 0.8 nM. For the same molecule, at σ2 receptor, the “σ1/σ2 Ratio” value amounted to 273. Moreover, the “affinity and selectivity” value at σ2 receptor (hydrochloride) is “highest affinity and selectivity; also recorded: moderate affinity and selectivity”.

In the case of `COc1ccc(C)cc1NC(=O)OC1CC2CCCC(C1)N2CCCCNCc1cccc(Br)c1` (stereo not drawn) [Compound 2a, N-(9-(4-(3′-Bromobenzylamino)butyl)-9-azabicyclo[3.3.1]nonan-3α-yl)-N-(2-methoxy-5-methylphenyl)carbamate oxalate], the figures for the Ki at σ1 receptor [2] and on σ2 receptor (setting [4]) were 66.3 ± 5.3 nM and 3.06 ± 0.41 nM, respectively. The “σ1/σ2 Ratio” value at σ2 receptor was determined as 21.66.

As to `COc1ccc(C)cc1NC(=O)OC1CC2CCCC(C1)N2CCCCNCc1ccc(Br)cc1` (stereo not drawn) [Compound 2d, N-(9-(4-(4′-Bromobenzylamino)butyl)-9-azabicyclo[3.3.1]nonan-3α-yl)-N-(2-methoxy-5-methylphenyl)carbamates], the figures for the Ki on σ1 receptor [2] and at σ2 receptor (setting [4]) were 1.7 ± 0.28 nM and 4.07 ± 0.61 nM, respectively. Moreover, the “σ1/σ2 Ratio” value at σ2 receptor turned out to be 0.42.

With `COc1ccc(C)cc1NC(=O)OC1CC2CCCC(C1)N2CCCCNCc1cccc(F)c1` (stereo not drawn) [Compound 2b, N-(9-(4-(3′-Fluorobenzylamino)butyl)-9-azabicyclo[3.3.1]nonan-3α-yl)-N-(2-methoxy-5-methylphenyl)carbamate oxalate], the figures for the Ki at σ1 receptor [2] and at σ2 receptor (setting [4]) were 0.3 ± 0.05 nM and 4.13 ± 0.33 nM, respectively. In addition, the “σ1/σ2 Ratio” value at σ2 receptor worked out at 0.07.

Consider `COC(=O)CC[C@H](NC(=O)[C@H](CC(=O)OC)NC(=O)OCc1ccccc1)C(=O)N[C@H](C(=O)N[C@@H](CC(=O)OC)C(=O)CF)C(C)C` [Z-DEVD-FMK], for which, in the data set with EMT-6 cells, the “effect on cell death / cytotoxic effects induced by the three σ2 selective ligands” value is recorded as “partially blocked; also recorded: partially, but not completely, blocked”.

In the case of `COc1ccc(C)cc1NC(=O)OC1C[C@H]2CCC[C@@H](C1)N2CCCCCCN` (stereo partly drawn) [SV119], the Ki at σ1 receptor [1] stood at 1420 nM; on σ2 receptor (setting [3]), 5.2 nM. Also, the “σ1/σ2 Ratio” value on σ2 receptor is given as 273.

Regarding `COc1ccc(C)cc1NC(=O)OC1CC2CCCC(C1)N2CCCCCCNCc1cccc(F)c1` (stereo not drawn) [Compound 3b, N-(9-(6-(3′-Fluorobenzylamino)hexyl)-9-azabicyclo[3.3.1]nonan-3α-yl)-N-(2-methoxy-5-methylphenyl)carbamate oxalate], the results for the Ki on σ1 receptor [2] and on σ2 receptor (setting [4]) were 0.46 ± 0.05 nM and 4.85 ± 0.49 nM, respectively. The “σ1/σ2 Ratio” value at σ2 receptor is reported as 0.09.

Take `COc1ccc(C)cc1NC(=O)OC1CC2CCCC(C1)N2CCCCCCNCc1cccc(Br)c1` (stereo not drawn) [Compound 3a, N-(9-(6-(3′-Bromobenzylamino)hexyl)-9-azabicyclo[3.3.1]nonan-3α-yl)-N-(2-methoxy-5-methylphenyl)carbamate oxalate]: the Ki on σ1 receptor [2] was found to be 112 ± 4.8 nM; on σ2 receptor (setting [4]) it was 8.94 ± 0.61 nM. Also, the “σ1/σ2 Ratio” value at σ2 receptor is given as 12.57.

`COc1ccc(C)cc1NC(=O)OC1CC2CCCC(C1)N2CCCCCCNC(=O)c1ccc(Cl)cc1` (stereo not drawn) [Compound 4a] came in with a Ki at σ1 receptor [2] of 1400 ± 64 nM. On σ2 receptor, the “affinity and selectivity” value is “high affinity and selectivity”; the “σ1/σ2 Ratio” value is listed as 392. Affinity on σ2 receptor (setting [4]) was put at a Ki of 3.56 ± 0.08 nM.

On to `COc1ccc(C)cc1NC(=O)OC1CC2CCCC(C1)N2CCCCCCNCc1ccc(I)cc1` (stereo not drawn) [Compound 3f, N-(9-(6-(4′-Iodobenzylamino)hexyl)-9-azabicyclo[3.3.1]nonan-3α-yl)-N-(2-methoxy-5-methylphenyl)carbamate oxalate], for which the Ki at σ1 receptor [2] was determined as 0.65 ± 0.09 nM; on σ2 receptor (setting [4]) it was 35.9 ± 1.5 nM. On σ2 receptor, the “σ1/σ2 Ratio” value came out at 0.02.

As for `COc1ccc(C)cc1NC(=O)OC1CC2CCCC(C1)N2CCCCNCc1ccc(I)cc1` (stereo not drawn) [Compound 2f, N-(9-(4-(4′-Iodobenzylamino)butyl)-9-azabicyclo[3.3.1]nonan-3α-yl)-N-(2-methoxy-5-methylphenyl)carbamate oxalate], the Ki came to 0.34 ± 0.03 nM at σ1 receptor [2] and 4 ± 0.54 nM at σ2 receptor (setting [4]). Moreover, the “σ1/σ2 Ratio” value on σ2 receptor was determined as 0.08.

For `COc1ccc(C)cc1NC(=O)OC1CC2CCCC(C1)N2CCCCNCc1ccc(F)cc1` (stereo not drawn) [Compound 2e, N-(9-(4-(4′-Fluorobenzylamino)butyl)-9-azabicyclo[3.3.1]nonan-3α-yl)-N-(2-methoxy-5-methylphenyl)carbamate oxalate], the Ki is 22.1 ± 1.58 nM on σ1 receptor [2] and 29.1 ± 3.48 nM at σ2 receptor (setting [4]). Besides, the “σ1/σ2 Ratio” value at σ2 receptor worked out at 0.76.

For the molecule `COc1ccc(C)cc1NC(=O)OC1CC2CCCC(C1)N2CCCCCCNC(=O)c1ccc(Br)cc1` (stereo not drawn) [Compound 4b, N-(9-(4-(4′-Bromobenzoylamino)hexyl)-9-azabicyclo[3.3.1]nonan-3α-yl)-N-(2-methoxy-5-methylphenyl)carbamate oxalate], the Ki on σ1 receptor [2] came to 2040 ± 98 nM; at σ2 receptor (read-out: Ki σ2), 719 ± 84 nM. The “σ1/σ2 Ratio” value on σ2 receptor was found to be 2.84.

For `COc1ccc(C)cc1NC(=O)O[C@H]1C[C@H]2CCC[C@@H](C1)N2CCCCCCNCc1cccc(I)c1` [Compound 3c, N-(9-(6-(3′-Iodobenzylamino)hexyl)-9-azabicyclo-[3.3.1]nonan-3α-yl)-N-(2-methoxy-5-methylphenyl)carbamate oxalate], the Ki came to 0.56 ± 0.06 nM on σ1 receptor [2] and 32.7 ± 5.93 nM at σ2 receptor (setting [4]). For the same molecule, the “σ1/σ2 Ratio” value at σ2 receptor worked out at 0.02.

In the case of `COc1ccc(C)cc1NC(=O)OC1CC2CCCC(C1)N2CCCCCCNS(=O)(=O)c1cccc2c(N(C)C)cccc12` (stereo not drawn) [Compound 9, N-(9-(6-(5-Dimethylamino-1-naphthalenesulfonamido))hexyl)-9-azabicyclo[3.3.1]-nonan-3α-yl-N-(2-methoxy-5-methylphenyl)carbamate oxalate], affinity on σ1 receptor [2] was put at a Ki of 12600 nM. For the same molecule, at σ2 receptor, the “affinity and selectivity” value was “moderate affinity and selectivity”; the “σ1/σ2 Ratio” value amounted to 85.43. Also, on σ2 receptor (read-out: Ki σ2), the Ki was 148 ± 8.85 nM.
